# Experimental data reported in patent US9828360B2 (Array BioPharma Inc., priority 2012, dated 2017).
# Assays:
# ARK5 = biological target: T1, ARK5 (Homo sapiens, UniProt O60285); test: KinaseProfiler off-target kinase profiling; type: biochemical; settings: 10 μM, ATP near Km
# T1 construct: purchased Millipore, Inc. (KinaseProfiler service)
# Summary of the method: (§1)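 Duplicate measurements were made with 10 μM test compound and ATP close to the kinase-specific Km. Percent-of-control figures are the mean of those two measurements.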
# Abl2 = biological target: T2, Abl2 (Homo sapiens, UniProt P42684); test: KinaseProfiler off-target kinase profiling; type: biochemical; settings: 10 μM, ATP near Km
# T2 construct: purchased Millipore, Inc. (KinaseProfiler service)
# Summary of the method: as §1
# BTK = biological target: T3, BTK (Homo sapiens, UniProt Q06187); test: KinaseProfiler off-target kinase profiling; type: biochemical; settings: 10 μM, ATP near Km
# T3 construct: purchased Millipore, Inc. (KinaseProfiler service)
# Summary of the method: as §1
# CAMK1d = biological target: T4, CAMK1d (Homo sapiens, UniProt Q8IU85); test: KinaseProfiler off-target kinase profiling; type: biochemical; settings: 10 μM, ATP near Km
# T4 construct: purchased Millipore, Inc. (KinaseProfiler service)
# Summary of the method: as §1
# CDK1/cyclinB = biological target: T5, CDK1/cyclinB (Homo sapiens, UniProt P06493); test: KinaseProfiler off-target kinase profiling; type: biochemical; settings: 10 μM, ATP near Km
# T5 construct: purchased Millipore, Inc. (KinaseProfiler service)
# Summary of the method: as §1
# DAPK1 = biological target: T6, DAPK1 (Homo sapiens, UniProt P53355); test: KinaseProfiler off-target kinase profiling; type: biochemical; settings: 10 μM, ATP near Km
# T6 construct: purchased Millipore, Inc. (KinaseProfiler service)
# Summary of the method: as §1
# DDR2 = biological target: T7, DDR2 (Homo sapiens, UniProt Q16832); test: KinaseProfiler off-target kinase profiling; type: biochemical; settings: 10 μM, ATP near Km
# T7 construct: purchased Millipore, Inc. (KinaseProfiler service)
# Summary of the method: as §1
# FGFR1 = biological target: T8, FGFR1 (Homo sapiens, UniProt P11362); test: KinaseProfiler off-target kinase profiling; type: biochemical; settings: 10 μM, ATP near Km
# T8 construct: purchased Millipore, Inc. (KinaseProfiler service)
# Summary of the method: as §1
# Lck = biological target: T9, Lck (Homo sapiens, UniProt P06239); test: KinaseProfiler off-target kinase profiling; type: biochemical; settings: 10 μM, ATP near Km
# T9 construct: purchased Millipore, Inc. (KinaseProfiler service)
# Summary of the method: as §1
# MKNK2 = biological target: T10, MKNK2 (Homo sapiens, UniProt Q9HBH9); test: KinaseProfiler off-target kinase profiling; type: biochemical; settings: 10 μM, ATP near Km
# T10 construct: purchased Millipore, Inc. (KinaseProfiler service)
# Summary of the method: as §1
# MSK2 = biological target: T11, MSK2 (Homo sapiens, UniProt O75676); test: KinaseProfiler off-target kinase profiling; type: biochemical; settings: 10 μM, ATP near Km
# T11 construct: purchased Millipore, Inc. (KinaseProfiler service)
# Summary of the method: as §1
# NLK = biological target: T12, NLK (Homo sapiens, UniProt Q9UBE8); test: KinaseProfiler off-target kinase profiling; type: biochemical; settings: 10 μM, ATP near Km
# T12 construct: purchased Millipore, Inc. (KinaseProfiler service)
# Summary of the method: as §1
# PDGFRalpha = biological target: T13, PDGFRalpha (Homo sapiens, UniProt P16234); test: KinaseProfiler off-target kinase profiling; type: biochemical; settings: 10 μM, ATP near Km
# T13 construct: purchased Millipore, Inc. (KinaseProfiler service)
# Summary of the method: as §1
# PKCbetaII = biological target: T14, PKCbetaII (Homo sapiens, UniProt P05771); test: KinaseProfiler off-target kinase profiling; type: biochemical; settings: 10 μM, ATP near Km
# T14 construct: purchased Millipore, Inc. (KinaseProfiler service)
# Summary of the method: as §1
# PKCeta = biological target: T15, PKCeta (Homo sapiens, UniProt P24723); test: KinaseProfiler off-target kinase profiling; type: biochemical; settings: 10 μM, ATP near Km
# T15 construct: purchased Millipore, Inc. (KinaseProfiler service)
# Summary of the method: as §1
# PKCtheta = biological target: T16, PKCtheta (Homo sapiens, UniProt Q04759); test: KinaseProfiler off-target kinase profiling; type: biochemical; settings: 10 μM, ATP near Km
# T16 construct: purchased Millipore, Inc. (KinaseProfiler service)
# Summary of the method: as §1
# ROCK-II = biological target: T17, ROCK-II (Homo sapiens, UniProt O75116); test: KinaseProfiler off-target kinase profiling; type: biochemical; settings: 10 μM, ATP near Km
# T17 construct: purchased Millipore, Inc. (KinaseProfiler service)
# Summary of the method: as §1
# Ret = biological target: T18, Ret (Homo sapiens, UniProt P07949); test: KinaseProfiler off-target kinase profiling; type: biochemical; settings: 10 μM, ATP near Km
# T18 construct: purchased Millipore, Inc. (KinaseProfiler service)
# Summary of the method: as §1
# Rsk2 = biological target: T19, Rsk2 (Homo sapiens, UniProt P51812); test: KinaseProfiler off-target kinase profiling; type: biochemical; settings: 10 μM, ATP near Km
# T19 construct: purchased Millipore, Inc. (KinaseProfiler service)
# Summary of the method: as §1
# TBK1 = biological target: T20, TBK1 (Homo sapiens, UniProt Q9UHD2); test: KinaseProfiler off-target kinase profiling; type: biochemical; settings: 10 μM, ATP near Km
# T20 construct: purchased Millipore, Inc. (KinaseProfiler service)
# Summary of the method: as §1
# TEC Activated = biological target: T21, TEC Activated (Homo sapiens, UniProt P42680); test: KinaseProfiler off-target kinase profiling; type: biochemical; settings: 10 μM, ATP near Km
# T21 construct: purchased Millipore, Inc. (KinaseProfiler service)
# Summary of the method: as §1
# mTOR/FKBP12 = biological target: T22, mTOR/FKBP12 (Homo sapiens, UniProt P42345); test: KinaseProfiler off-target kinase profiling; type: biochemical; settings: 10 μM, ATP near Km
# T22 construct: purchased Millipore, Inc. (KinaseProfiler service)
# Summary of the method: as §1
# p38delta = biological target: T23, p38delta (Homo sapiens, UniProt O15264); test: KinaseProfiler off-target kinase profiling; type: biochemical; settings: 10 μM, ATP near Km
# T23 construct: purchased Millipore, Inc. (KinaseProfiler service)
# Summary of the method: as §1
# TrkA [1] = biological target: T24, TrkA (Homo sapiens, UniProt P04629); test: KinaseProfiler off-target kinase profiling; type: biochemical; set-up: purchased Millipore, Inc. (KinaseProfiler service); settings: 10 μM, ATP near Km
# Description: A representative compound of the invention (Example 48) was tested for off-target kinase activity at a concentration of 10 μM by Millipore, Inc. in their KinaseProfiler™ service against all the kinases available in their full kinase panel. The compound was run in duplicate at a concentration of ATP near the Km for each individual kinase according to Millipore's specifications. The results are shown in Table B. Data are reported as percent of control (POC) and are the average of the two replicates.
# TrkA [2] = biological target: T24, TrkA; test: TrkA LanthaScreen Eu Kinase Binding Assay; set-up: 6HIS tagged cytoplasmic domain from Invitrogen, Cat. No. PV3144; purchased Invitrogen PV3144; settings: averaged IC50 values, read-out: TrkA Enzyme IC50
# Description: TrkA binding activity was determined in a TrkA LanthaScreen™ Eu Kinase Binding Assay. 5 nM His-tagged recombinant human TrkA (6HIS tagged cytoplasmic domain from Invitrogen, Cat. No. PV3144) was incubated with 4 nM Alexa-Fluor® Tracer 236 (Invitrogen Cat. No. PV5592), 2 nM biotinylated anti-His (Invitrogen Cat. No. PV6090), and 2 nM europium-labeled Streptavidin (Invitrogen Cat. No. PV5899), in buffer (25 mM MOPS, pH 7.5, 5 mM MgCl2, 0.005% Triton X-100). Three fold serial dilutions of compounds of the invention in DMSO were added to a final percentage of 2% DMSO. After 60-minute incubation at 22° C., the reaction was measured using the EnVision mutlimode plate reader (PerkinElmer) via TR-FRET dual wavelength detection at […]. The percent of control was calculated using a ratiometric emission factor. The IC50 values were determined by fitting a four parameter model to the percent of control data.
# Table A provides averaged IC50 values for compounds of the invention when tested in the assay of Example A, where A represents an averaged IC50 value <100 nM; and B represents an averaged IC50 value from 100 to 1,000 nM.
# T15 sequence (P24723 whole entry): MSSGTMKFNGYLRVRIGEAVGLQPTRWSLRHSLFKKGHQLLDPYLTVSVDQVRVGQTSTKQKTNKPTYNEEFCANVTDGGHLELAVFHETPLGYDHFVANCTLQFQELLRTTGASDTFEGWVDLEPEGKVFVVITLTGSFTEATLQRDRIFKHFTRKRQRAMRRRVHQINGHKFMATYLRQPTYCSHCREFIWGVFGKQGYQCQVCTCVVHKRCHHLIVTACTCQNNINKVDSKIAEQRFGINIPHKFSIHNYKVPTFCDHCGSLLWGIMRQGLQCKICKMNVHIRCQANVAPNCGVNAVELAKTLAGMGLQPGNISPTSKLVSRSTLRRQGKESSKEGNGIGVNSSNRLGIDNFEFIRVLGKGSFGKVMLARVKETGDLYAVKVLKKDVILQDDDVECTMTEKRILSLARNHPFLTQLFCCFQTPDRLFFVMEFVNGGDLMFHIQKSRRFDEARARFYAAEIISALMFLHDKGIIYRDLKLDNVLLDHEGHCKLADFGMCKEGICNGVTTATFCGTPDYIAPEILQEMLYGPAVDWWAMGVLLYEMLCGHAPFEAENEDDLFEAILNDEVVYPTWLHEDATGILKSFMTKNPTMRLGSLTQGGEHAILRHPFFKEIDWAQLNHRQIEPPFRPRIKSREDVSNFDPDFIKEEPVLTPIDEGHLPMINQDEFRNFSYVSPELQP
# T13 sequence (P16234 24-1089): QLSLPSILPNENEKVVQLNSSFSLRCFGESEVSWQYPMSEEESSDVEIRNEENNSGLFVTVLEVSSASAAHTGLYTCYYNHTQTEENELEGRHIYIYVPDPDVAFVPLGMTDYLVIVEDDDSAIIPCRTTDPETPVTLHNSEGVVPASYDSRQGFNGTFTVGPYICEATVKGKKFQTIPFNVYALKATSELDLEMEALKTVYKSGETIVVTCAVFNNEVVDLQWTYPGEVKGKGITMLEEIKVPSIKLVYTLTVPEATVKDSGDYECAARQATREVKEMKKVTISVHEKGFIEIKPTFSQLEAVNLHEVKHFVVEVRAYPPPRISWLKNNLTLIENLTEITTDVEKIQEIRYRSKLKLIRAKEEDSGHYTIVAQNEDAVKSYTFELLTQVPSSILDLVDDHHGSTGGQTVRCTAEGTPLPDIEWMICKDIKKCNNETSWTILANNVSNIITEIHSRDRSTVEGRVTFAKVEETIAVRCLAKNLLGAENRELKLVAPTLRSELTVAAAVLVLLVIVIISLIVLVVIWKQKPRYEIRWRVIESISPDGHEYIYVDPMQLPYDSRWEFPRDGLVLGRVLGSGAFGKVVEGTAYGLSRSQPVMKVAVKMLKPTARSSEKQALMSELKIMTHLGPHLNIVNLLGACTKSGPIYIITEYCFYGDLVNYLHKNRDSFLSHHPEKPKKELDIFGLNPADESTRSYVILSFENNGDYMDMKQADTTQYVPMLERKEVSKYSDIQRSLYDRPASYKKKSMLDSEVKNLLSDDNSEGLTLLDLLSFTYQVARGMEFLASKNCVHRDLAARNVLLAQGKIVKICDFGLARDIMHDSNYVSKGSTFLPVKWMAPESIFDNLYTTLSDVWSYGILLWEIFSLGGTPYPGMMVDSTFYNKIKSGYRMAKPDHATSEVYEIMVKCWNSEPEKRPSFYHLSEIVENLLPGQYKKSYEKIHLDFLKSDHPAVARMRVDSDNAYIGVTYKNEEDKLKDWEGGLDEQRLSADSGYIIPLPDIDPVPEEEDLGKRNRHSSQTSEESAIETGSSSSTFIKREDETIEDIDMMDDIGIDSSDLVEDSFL
# T7 sequence (Q16832 22-855): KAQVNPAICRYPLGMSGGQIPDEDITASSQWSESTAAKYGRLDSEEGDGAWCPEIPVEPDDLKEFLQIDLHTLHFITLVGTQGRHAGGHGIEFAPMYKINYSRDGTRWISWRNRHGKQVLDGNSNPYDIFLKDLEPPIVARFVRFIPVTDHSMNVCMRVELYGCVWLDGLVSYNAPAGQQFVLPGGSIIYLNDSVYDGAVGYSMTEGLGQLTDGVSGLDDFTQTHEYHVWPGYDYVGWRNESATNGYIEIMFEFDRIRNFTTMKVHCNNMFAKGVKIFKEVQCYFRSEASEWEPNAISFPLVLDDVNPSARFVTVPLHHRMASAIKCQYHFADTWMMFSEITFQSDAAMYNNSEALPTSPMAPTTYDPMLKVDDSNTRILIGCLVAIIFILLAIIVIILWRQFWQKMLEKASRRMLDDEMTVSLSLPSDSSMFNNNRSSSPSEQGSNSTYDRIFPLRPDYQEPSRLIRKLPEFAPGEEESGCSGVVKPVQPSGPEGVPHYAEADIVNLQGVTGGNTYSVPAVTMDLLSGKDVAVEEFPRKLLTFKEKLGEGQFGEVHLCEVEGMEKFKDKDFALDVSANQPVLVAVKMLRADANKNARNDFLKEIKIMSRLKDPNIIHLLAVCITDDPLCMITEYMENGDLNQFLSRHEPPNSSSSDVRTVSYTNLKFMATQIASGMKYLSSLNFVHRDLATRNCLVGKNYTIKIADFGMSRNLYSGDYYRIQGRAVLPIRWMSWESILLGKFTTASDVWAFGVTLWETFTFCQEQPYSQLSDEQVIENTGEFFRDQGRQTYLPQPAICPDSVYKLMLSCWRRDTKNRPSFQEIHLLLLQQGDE
# T20 sequence (Q9UHD2 whole entry): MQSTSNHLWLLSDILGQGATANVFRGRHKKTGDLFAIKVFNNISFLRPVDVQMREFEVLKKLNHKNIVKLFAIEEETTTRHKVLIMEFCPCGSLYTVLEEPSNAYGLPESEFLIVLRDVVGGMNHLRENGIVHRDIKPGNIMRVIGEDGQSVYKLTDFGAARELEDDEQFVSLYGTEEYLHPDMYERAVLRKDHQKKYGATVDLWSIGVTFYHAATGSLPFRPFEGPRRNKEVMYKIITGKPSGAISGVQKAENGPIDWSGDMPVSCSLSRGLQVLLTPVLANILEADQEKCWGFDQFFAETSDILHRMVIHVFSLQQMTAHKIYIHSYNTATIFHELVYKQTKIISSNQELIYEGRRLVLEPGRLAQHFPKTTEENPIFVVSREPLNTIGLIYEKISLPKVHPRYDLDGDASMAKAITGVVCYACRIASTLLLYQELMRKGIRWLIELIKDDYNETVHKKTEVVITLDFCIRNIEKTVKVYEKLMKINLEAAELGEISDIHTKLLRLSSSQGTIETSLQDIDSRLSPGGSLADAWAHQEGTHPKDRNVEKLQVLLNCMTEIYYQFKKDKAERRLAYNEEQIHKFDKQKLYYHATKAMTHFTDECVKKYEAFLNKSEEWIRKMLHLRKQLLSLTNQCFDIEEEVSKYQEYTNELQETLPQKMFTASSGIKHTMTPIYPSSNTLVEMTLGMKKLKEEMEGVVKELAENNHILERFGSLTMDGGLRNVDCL
# T16 sequence (Q04759 whole entry): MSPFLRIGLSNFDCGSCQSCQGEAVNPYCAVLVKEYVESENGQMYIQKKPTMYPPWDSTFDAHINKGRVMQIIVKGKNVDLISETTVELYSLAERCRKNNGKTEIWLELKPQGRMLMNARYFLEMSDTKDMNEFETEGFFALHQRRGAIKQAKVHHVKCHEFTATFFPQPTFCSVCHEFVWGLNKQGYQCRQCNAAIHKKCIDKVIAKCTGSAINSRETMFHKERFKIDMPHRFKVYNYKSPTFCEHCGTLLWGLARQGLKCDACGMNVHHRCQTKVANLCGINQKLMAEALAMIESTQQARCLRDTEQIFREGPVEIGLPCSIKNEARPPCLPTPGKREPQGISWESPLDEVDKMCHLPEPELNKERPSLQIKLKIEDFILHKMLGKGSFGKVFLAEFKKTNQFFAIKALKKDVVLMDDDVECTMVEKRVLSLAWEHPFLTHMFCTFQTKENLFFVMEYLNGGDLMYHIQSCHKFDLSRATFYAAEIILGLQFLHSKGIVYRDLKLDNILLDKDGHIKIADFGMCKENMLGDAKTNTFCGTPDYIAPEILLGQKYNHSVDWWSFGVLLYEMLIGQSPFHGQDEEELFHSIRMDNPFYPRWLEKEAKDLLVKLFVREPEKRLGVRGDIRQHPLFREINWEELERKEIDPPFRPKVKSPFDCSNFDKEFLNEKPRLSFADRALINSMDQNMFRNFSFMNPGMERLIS
# T9 sequence (P06239 whole entry): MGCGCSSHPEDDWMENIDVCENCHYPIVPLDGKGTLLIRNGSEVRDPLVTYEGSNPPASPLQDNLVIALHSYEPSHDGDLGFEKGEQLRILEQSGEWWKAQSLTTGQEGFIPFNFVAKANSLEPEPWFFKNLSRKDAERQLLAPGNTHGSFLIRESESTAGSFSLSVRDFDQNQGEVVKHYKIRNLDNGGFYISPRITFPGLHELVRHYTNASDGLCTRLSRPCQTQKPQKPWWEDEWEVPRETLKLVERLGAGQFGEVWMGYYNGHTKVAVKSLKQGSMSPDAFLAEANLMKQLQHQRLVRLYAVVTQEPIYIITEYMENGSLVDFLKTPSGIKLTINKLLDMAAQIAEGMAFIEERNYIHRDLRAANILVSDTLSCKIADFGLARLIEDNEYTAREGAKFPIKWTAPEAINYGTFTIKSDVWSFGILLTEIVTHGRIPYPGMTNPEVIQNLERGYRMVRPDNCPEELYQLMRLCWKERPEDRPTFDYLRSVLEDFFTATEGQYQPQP
# T23 sequence (O15264 whole entry): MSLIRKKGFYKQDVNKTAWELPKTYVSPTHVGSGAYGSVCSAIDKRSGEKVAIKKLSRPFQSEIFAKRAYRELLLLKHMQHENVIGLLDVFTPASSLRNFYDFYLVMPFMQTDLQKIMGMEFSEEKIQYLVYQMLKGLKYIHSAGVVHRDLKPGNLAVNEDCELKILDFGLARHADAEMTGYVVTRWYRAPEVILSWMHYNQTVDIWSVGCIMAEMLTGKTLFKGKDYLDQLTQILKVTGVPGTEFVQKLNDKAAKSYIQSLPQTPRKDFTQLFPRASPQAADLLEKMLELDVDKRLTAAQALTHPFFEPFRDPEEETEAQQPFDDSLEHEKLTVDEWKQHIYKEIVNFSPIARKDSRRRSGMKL
smiles,measurement,setting,value
"COCCN1C[C@@H](NC(=O)Nc2sc(C(C)C)nc2-c2ccccc2)[C@H](c2ccccc2)C1 [Example 48, 1-(2-isopropyl-4-phenylthiazol-5-yl)-3-((3S,4R)-1-(2-methoxyethyl)-4-phenylpyrrolidin-3-yl)urea]",Avg POC,ARK5,106% of control
same,Avg POC,Abl2,124.5% of control
same,Avg POC,BTK,97.5% of control
same,Avg POC,CAMK1d,105% of control
same,Avg POC,CDK1/cyclinB,106% of control
same,Avg POC,DAPK1,114.5% of control
same,Avg POC,DDR2,101.5% of control
same,Avg POC,FGFR1,98% of control
same,Avg POC,Lck,102% of control
same,Avg POC,MKNK2,96% of control
same,Avg POC,MSK2,103.5% of control
same,Avg POC,NLK,108.5% of control
same,Avg POC,PDGFRalpha,104.5% of control
same,Avg POC,PKCbetaII,97.5% of control
same,Avg POC,PKCeta,93% of control
same,Avg POC,PKCtheta,108.5% of control
same,Avg POC,ROCK-II,104.5% of control
same,Avg POC,Ret,125.5% of control
same,Avg POC,Rsk2,134% of control
same,Avg POC,TBK1,96.5% of control
same,Avg POC,TEC Activated,94% of control
same,Avg POC,mTOR/FKBP12,111.5% of control
same,Avg POC,p38delta,108.5% of control
same,Avg POC,TrkA [1],2.5% of control
same,IC50,TrkA [2],< 100 nM
